The compounds below were run against purified human MMP-12 enzyme (Homo sapiens, UniProt P39900) (assay: MMP-12 FRET assay). Settings: substrate 20 μM, room temperature.
Format: biochemical
Procedure, shortened: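 Enzyme pre-incubated 30 min at room temperature with compound in 50 mM HEPES pH 7.4, 100 mM NaCl, 5 mM CaCl2, 0.005% Brij-35, 10% DMSO final. Reaction started with 20 μM MCA-Pro-Leu-Gly-Leu-Dpa(DNP)-Ala-Arg, and initial cleavage rate read over 30 min (λex 325, λem 395 nm). IC50 from slope-factor inhibition fit.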

purified human MMP-12 enzyme, sequence (P39900 106-470): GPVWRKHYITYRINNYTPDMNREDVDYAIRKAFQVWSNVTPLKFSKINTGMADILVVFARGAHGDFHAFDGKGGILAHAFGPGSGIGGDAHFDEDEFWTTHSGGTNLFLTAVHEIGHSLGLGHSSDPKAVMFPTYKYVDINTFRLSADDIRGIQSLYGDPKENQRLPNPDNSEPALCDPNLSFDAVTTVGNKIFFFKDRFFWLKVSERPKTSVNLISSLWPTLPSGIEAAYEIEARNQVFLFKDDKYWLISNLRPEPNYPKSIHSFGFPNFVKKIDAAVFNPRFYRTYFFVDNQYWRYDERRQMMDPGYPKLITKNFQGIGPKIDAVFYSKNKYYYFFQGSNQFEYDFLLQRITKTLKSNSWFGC

| IC50 [nM] | SMILES |
| --- | --- |
| 8.6 | CC(C)[C@H](NS(=O)(=O)c1ccc2c(c1)oc1cc(-c3noc(-c4ccc(F)cc4)n3)ccc12)C(=O)O [Compound 188, (S)-2-(7-(5-(4-fluorophenyl)-1,2,4-oxadiazol-3-yl)dibenzo[b,d]furan-3-sulfonamido)-3-methylbutanoic acid] |
| < 1.5 | COc1ccc(-c2ccc3oc4cc(S(=O)(=O)N[C@H](C(=O)O)C(C)C)ccc4c3c2)cc1 [Compound 310, (S)-2-(8-(4-methoxyphenyl)dibenzo[b,d]furan-3-sulfonamido)-3-methylbutanoic acid] |
| 11 | Cc1nc(CC(C)C)sc1-c1ccc2c(c1)oc1cc(S(=O)(=O)N[C@H](C(=O)O)C(C)C)ccc12 [Compound 235, (S)-2-(7-(2-isobutyl-4-methylthiazol-5-yl)dibenzo[b,d]furan-3-sulfonamido)-3-methylbutanoic acid] |
| 59 | CC(C)[C@@H](NS(=O)(=O)c1ccc2oc3cc(/C=C/C4CCCCC4)ccc3c2c1)C(=O)O [Compound 104, (R,E)-2-(7-(2-cyclohexylvinyl)dibenzo[b,d]furan-2-sulfonamido)-3-methylbutanoic acid] |
| 2.4 | CC(C)[C@H](NS(=O)(=O)c1ccc2c(c1)oc1ccc(-c3ncc(CO)s3)cc12)C(=O)O [Compound 215, (S)-2-(8-(5-(hydroxymethyl)thiazol-2-yl)dibenzo[b,d]furan-3-sulfonamido)-3-methylbutanoic acid] |
| < 1.5 | CC(C)[C@@H](NS(=O)(=O)c1ccc2oc3cc(-c4noc(C5CCC5)n4)ccc3c2c1)C(=O)O [Compound 148, (R)-2-(7-(5-cyclobutyl-1,2,4-oxadiazol-3-yl)dibenzo[b,d]furan-2-sulfonamido)-3-methylbutanoic acid] |
| 400 | CCN(CC)C(=N)c1ccc2oc3cc(S(=O)(=O)N[C@H](C(=O)O)C(C)C)ccc3c2c1 [Compound 106, (S)-2-(8-(N,N-diethylcarbamimidoyl)dibenzo[b,d]furan-3-sulfonamido)-3-methylbutanoic acid] |
| < 1.5 | CC(C)[C@@H](NS(=O)(=O)c1ccc2oc3cc(-c4noc(C5CC5)n4)ccc3c2c1)C(=O)O [Compound 147, (R)-2-(7-(5-cyclopropyl-1,2,4-oxadiazol-3-yl)dibenzo[b,d]furan-2-sulfonamido)-3-methylbutanoic acid] |
| > 1000 | CC(C)[C@H](NS(=O)(=O)c1ccc2c(c1)sc1c(-c3ccsc3Cl)cccc12)C(=O)O [Compound 51, (S)-2-(6-(2-chlorothiophen-3-yl)dibenzo[b,d]thiophene-3-sulfonamido)-3-methylbutanoic acid] |
| < 1.5 | CC(=O)c1ccc(-c2ccc3oc4cc(S(=O)(=O)N[C@H](C(=O)O)C(C)C)ccc4c3c2)s1 [Compound 32, (S)-2-(8-(5-acetylthiophen-2-yl)dibenzo[b,d]furan-3-sulfonamido)-3-methylbutanoic acid] |
| 2.2 | Cc1cscc1-c1ccc2oc3cc(S(=O)(=O)N[C@H](C(=O)O)C(C)C)ccc3c2c1 [Compound 5, (S)-3-methyl-2-(8-(4-methylthiophen-3-yl)dibenzo[b,d]furan-3-sulfonamido)butanoic acid] |
| 5 | CC(C)[C@@H](NS(=O)(=O)c1ccc2oc3cc(-c4noc(-c5ccccc5)n4)ccc3c2c1)C(=O)O [Compound 150, (R)-3-methyl-2-(7-(5-phenyl-1,2,4-oxadiazol-3-yl)dibenzo[b,d]furan-2-sulfonamido)butanoic acid] |
| 16 | CC(C)[C@@H](NS(=O)(=O)c1ccc2oc3cc(-c4cn[nH]c4)ccc3c2c1)C(=O)O [Compound 103, (R)-2-(7-(1H-pyrazol-4-yl)dibenzo[b,d]furan-2-sulfonamido)-3-methylbutanoic acid] |
| 170 | CC(C)[C@H](NS(=O)(=O)c1ccc2oc3cc(-c4ccc(C(C)(C)C)o4)ccc3c2c1)C(=O)O [Compound 241, (S)-2-(7-(5-tert-butylfuran-2-yl)dibenzo[b,d]furan-2-sulfonamido)-3-methylbutanoic acid] |
| 11 | CC(C)[C@@H](NS(=O)(=O)c1ccc2c(c1)oc1ccc(-c3ccc4c(c3)C(C)(C)OC(=O)N4)cc12)C(=O)O [Compound 1, (R)-2-(8-(4,4-dimethyl-2-oxo-2,4-dihydro-1H-benzo[d][1,3]oxazin-6-yl)dibenzo[b,d]furan-3-sulfonamido)-3-methylbutanoic acid] |
| 3.4 | CC(C)Cc1ncc(-c2ccc3c(c2)oc2ccc(S(=O)(=O)N[C@@H](C(=O)O)C(C)C)cc23)s1 [Compound 244, (R)-2-(7-(2-isobutylthiazol-5-yl)dibenzo[b,d]furan-2-sulfonamido)-3-methylbutanoic acid] |
| 80 | CC(C)Cn1cc(-c2ccc3c(c2)oc2ccc(S(=O)(=O)N[C@@H](C(=O)O)C(C)C)cc23)cn1 [Compound 173, (R)-2-(7-(1-isobutyl-1H-pyrazol-4-yl)dibenzo[b,d]furan-2-sulfonamido)-3-methylbutanoic acid] |
| 9.1 | CC(C)(C)c1nc(-c2ccc3oc4cc(S(=O)(=O)N[C@H](C(=O)O)C(C)(C)C)ccc4c3c2)no1 [Compound 257, (S)-2-(8-(5-tert-butyl-1,2,4-oxadiazol-3-yl)dibenzo[b,d]furan-3-sulfonamido)-3,3-dimethylbutanoic acid] |
| 4.5 | CC(C)[C@H](NS(=O)(=O)c1ccc2c(c1)oc1ccc(-c3ccc(-c4ccon4)s3)cc12)C(=O)O [Compound 216, (S)-2-(8-(5-(isoxazol-3-yl)thiophen-2-yl)dibenzo[b,d]furan-3-sulfonamido)-3-methylbutanoic acid] |
| < 1.5 | CC(C)[C@H](NS(=O)(=O)c1ccc2c(c1)oc1ccc(-c3ccncc3)cc12)C(=O)O [Compound 16, (S)-3-methyl-2-(8-(pyridin-4-yl)dibenzo[b,d]furan-3-sulfonamido)butanoic acid] |
| < 1.5 | CC(C)[C@H](NS(=O)(=O)c1ccc2c(c1)oc1ccc(-c3ccoc3Cl)cc12)C(=O)O [Compound 94, (S)-2-(8-(2-chlorofuran-3-yl)dibenzo[b,d]furan-3-sulfonamido)-3-methylbutanoic acid] |
| 18 | CC(C)[C@H](NS(=O)(=O)c1ccc2c(c1)sc1ccc(/C=C/C3CCCCC3)cc12)C(=O)O [Compound 58, (S,E)-2-(8-(2-cyclohexylvinyl)dibenzo[b,d]thiophene-3-sulfonamido)-3-methylbutanoic acid] |
| 38 | CC(C)[C@H](NS(=O)(=O)c1ccc2c(c1)sc1ccc(-c3ccsc3)cc12)C(=O)O [Compound 26, (S)-3-methyl-2-(8-(thiophen-3-yl)dibenzo[b,d]thiophene-3-sulfonamido)butanoic acid] |
| < 1.5 | CCc1ccc(-c2ccc3c(c2)oc2cc(S(=O)(=O)N[C@H](C(=O)O)C(C)C)ccc23)s1 [Compound 229, (S)-2-(7-(5-ethylthiophen-2-yl)dibenzo[b,d]furan-3-sulfonamido)-3-methylbutanoic acid] |
| < 1.5 | C/C=C\c1ccc2oc3cc(S(=O)(=O)N[C@H](C(=O)O)C(C)C)ccc3c2c1 [Compound 67, (S,Z)-3-methyl-2-(8-(prop-1-enyl)dibenzo[b,d]furan-3-sulfonamido)butanoic acid] |
| 1900 | CC(C)[C@H](NS(=O)(=O)c1ccc2c(c1)oc1ccc(-c3nn[nH]n3)cc12)C(=O)O [Compound 130, (S)-2-(8-(2H-tetrazol-5-yl)dibenzo[b,d]furan-3-sulfonamido)-3-methylbutanoic acid] |

— US20100227859A1, “TRICYCLIC COMPOUNDS AS MATRIX METALLOPROTEINASE INHIBITORS” (priority 2007, published 2010)
